Some results are limits rather than exact numbers.

`O=C(NCc1ccccc1)c1ccc(F)c2c1CC(N(CCCc1c[nH]c3ccc(F)cc13)C1CCC1)CO2` (stereo not drawn) registered a melting point of 124 °C. Regarding `FC(F)(F)C1(c2ccccc2)c2ccccc2Oc2ccccc21`, the melting point fell in the range of 89 to 90 °C. Next, `COc1cc(C)c(C(=O)c2c(C(F)(F)F)ccnc2OC)cc1OC`: 125 to 127 °C.

`Cc1cc(C#Cc2cccc(-c3ccccc3)c2)ccn1` gave a melting point of 56 to 58 °C. `CCCCCCCCSc1ccc(C=Cc2ccc([N+](=O)[O-])cc2)cc1` gave a melting point of 53 °C. Next, `CC1(C)CCC(C#N)(Cc2ccc(Cl)cc2)C1=O` (stereo not drawn): 101 to 103 °C. `CNc1ccc(OC2CCN(c3ccncc3)CC2)cc1` had a melting point of 161 to 164 °C. Next, `COC(=O)NS(=O)(=O)c1ncccc1C(F)(F)F`: 128 to 129 °C; `CCCCCCCCCCCCCCCCCC(O)C[N+](=O)[O-]` (stereo not drawn): 55 to 56 °C; `Cc1cc(CC#N)c(CC#N)cc1C`: 103 to 104 °C.

For `CCC(OC(C)=O)c1nc2c(C(F)(F)F)cccc2c(O)c1C(=O)Nc1nccs1` (stereo not drawn), the melting point is 245 °C. `O=C(O)CCCCCN1C(=O)c2ccc([N+](=O)[O-])cc2C1=O` registered a melting point of 140 °C. Next, `CCCN1c2ncccc2C(=O)N(C)c2ccc(-c3cn[nH]c3)nc21`: 206 to 207 °C; `O=C(NCCCN1CCN(c2ccccc2OCC(F)(F)F)CC1)c1csc2c(=O)cc(-c3ccccc3)oc12`: 152 to 158 °C. Next, `CC(C)(C)OC(=O)N1CCC(c2ccc(COc3ccc(-c4nc[nH]n4)cc3)nc2)CC1`: 147 to 150 °C. Molecule `O=c1ccc(-c2c(-c3ccccc3)nn3ccccc23)nn1C1=C(CCO)CCCC1` registered a melting point of 198 to 199 °C. Next, `C=C(c1cc(F)ccc1OCc1c(Cl)cccc1Cl)n1ccnc1`: 108 to 110 °C; `CCOC(=O)c1cc2c(C)ccc(N(CC)S(=O)(=O)c3cccs3)c2[nH]1`: 148 to 149 °C. The molecule `O=[N+]([O-])c1ccc(Oc2cccc3ccccc23)nc1` came in with a melting point of 87.3 to 89.3 °C. As to `CC(O)(CCO)c1ccc(Oc2ccccc2)cc1` (stereo not drawn), the melting point fell in the range of 74 to 75 °C.

Regarding `Cc1ccccc1CC(C(=O)Nc1nc2cc(Cl)ccc2o1)c1ccc(S(C)(=O)=O)cc1` (stereo not drawn), the melting point was 184 to 185 °C.

The molecule `CC1(CNC(=O)CCl)OCCc2c1[nH]c1ccccc21` (stereo not drawn) yielded a melting point of 186 to 187 °C. Under `CNC1([C@@H]2CCN(c3ccc4c(=O)c(C(=O)O)cn([C@@H]5C[C@@H]5F)c4c3C)C2)CC1` stands 223 to 224 °C; under `CC1(C)Oc2ccc(C(=O)CN=[N+]=[N-])cc2S1`, 52 to 53 °C. Under `CCNc1nc(SC)ncc1CNc1c(F)c(OC)cc(OC)c1F` stands 95 to 99 °C. Molecule `CCCCCCCCCCCCCCCCCCOc1ccc(C(=O)Nc2ccc(O)cc2)cc1` displayed a melting point of 193 °C. Next, `COc1ccccc1[C@H](c1cccc2ccccc12)[C@@](C)(C#N)C(=O)N1CCN(c2cccc(C)c2)CC1`: 104 to 105 °C. Under `CCOC(=O)COc1ccc2c(c1)CCCC2=O` stands 39 to 41 °C; under `COc1ccc(N2CCN(c3c(C)c(C)c4c(c3C)C(O)(Cc3ccccc3)C(C)(C)O4)CC2)cc1` (stereo not drawn), 152 to 153 °C; under `O=C(O)CCc1cnoc1-c1ccc(Cl)cc1Cl`, 106 to 107 °C. Next, `O=C(O)CN1CCN(Cc2ccccc2)C1=O`: 132 to 133 °C.

Molecule `CCOc1nc(NCc2ccco2)nc(Nc2ccc3[nH]cnc3c2)n1` came in with a melting point of 110 to 112 °C.

In turn, `COc1cn(-c2ccc(-c3ccccn3)cc2F)nc(-c2ccnn2-c2ccccc2)c1=O` gave a melting point of 206 to 208 °C. Under `Cc1oc(-c2ccccc2)nc1CCOc1ccc(C[C@@H](C(=O)O)N2CCN(S(=O)(=O)c3ccc(F)cc3)CC2)cc1` stands 198 to 200 °C. Under `CCCCc1oc2ccccc2c1-c1ncc(-c2ccc3cc(O)ccc3c2)o1` stands 184 to 186 °C; under `COC(=O)C1CN(C(=O)c2ccc(OC(F)(F)F)cc2)c2cc(Cl)ccc2CN1S(=O)(=O)c1ccc(OC)cc1` (stereo not drawn), 149 to 151 °C. Under `CCOCn1c(-c2ccc(Cl)cc2)c(C#N)c(Sc2ccc(Cl)cc2)c1C(F)(F)F` stands 98 to 100 °C. Take `CCOC(=O)c1nc2ccc(OC)cc2n(C)c1=O`: the melting point worked out at 166 °C. For the molecule `CCCOc1ccc(Nc2c([N+](=O)[O-])ccc(Cl)c2C(=O)O)cc1`, the melting point lay in the range of 194 to 196 °C.

In the case of `N#Cc1ccc(-c2nc(COc3ccc(CCCn4ccnc4)cc3)co2)s1`, the melting point lay in the range of 73 to 74 °C.

With `CNc1sccc1C(=O)c1ccccc1F`, the melting point was in the range of 184 to 186 °C.

For `CC(C)(C(=O)C=Cc1ccc(F)cc1)C1OCCO1`, the melting point turned out to be 76 °C. Under `CC(C)(C)c1cc(CCc2cc(F)cc(F)c2NC(=O)NC(C)(C)c2ccc(Cl)c(Cl)c2)cc(C(C)(C)C)c1O` stands 224 to 226 °C. Under `CCc1c(C2=NN=C(C)Cc3cc4[nH]c(=O)oc4cc32)sc2cccc(F)c12` stands 297 to 299 °C. Next, `Cc1cccc(Cl)c1NC(=O)Nc1cc(N[C@H]2CC[C@H](O[Si](C)(C)C(C)(C)C)CC2)ncn1`: 218 to 220 °C. `Cc1c(-c2ccccc2)sc2nc(N)[nH]c(=O)c12` came in with a melting point of 356 to 358 °C. As to `O=[N+]([O-])c1oc2c(CCO)cccc2c1-c1ccccc1`, the melting point lay in the range of 133 to 136 °C.

The molecule `COC(=O)CCCON1CCNC1=Nc1c(Cl)cccc1Cl` gave a melting point of 95 to 96 °C. Next, `CCCCCCCCCCCCCCCCS(=O)(=O)Nc1cccc(C(C)=O)c1`: 95.5 to 100 °C; `COc1ccnc(CCc2nc3cc(-c4ccc(S(=O)(=O)NC5CCCCC5)cc4)cnc3[nH]2)c1`: 199 to 200 °C; `CN1CCCCC1CCc1ccccc1NC(=O)c1cccnc1` (stereo not drawn): 88 to 90 °C. Next, `O=c1cc(Sc2ccc(O)cc2)oc2cc(O)cc(O)c12`: 249 to 251 °C. Under `CCCCCCNC(=O)OC1CCN(C(=O)OCCCCCCNC(=O)Oc2ccc(Oc3ccccc3)cc2)CC1` stands 84 to 86 °C; under `Cc1cc(OCCCCOc2ccc([N+](=O)[O-])c(C)c2)ccc1[N+](=O)[O-]`, 108 to 110 °C; under `OC1CCC2(CC1)Cc1ccccc1C2`, 76 to 78 °C. `C=CCc1cc(-c2csc(-c3ccc(OCC)c(OCC)c3)n2)cc(C(=O)OC)c1O` came in with a melting point of 118 to 119 °C. Molecule `COCCOCc1ccc(C#CC2(O)CN3CCC2CC3)c(F)c1` (stereo not drawn) yielded a melting point of 117 to 118 °C. Next, `CCN(CC)C(=O)Cc1c(N)n[nH]c1-c1ccc(OC)cc1`: 154 to 158 °C; `CN(CC(=O)C(CCCCN)NC(=O)c1ccccc1)C(=O)N1CCCC1C(=O)O` (stereo not drawn): 130 to 133 °C; `O=Cc1c(Cl)ncnc1Cl`: 65 to 66 °C. For the molecule `CCOC(=O)Cc1ccc(N(C)c2nc(=O)c3cccnc3s2)cc1`, the melting point lay in the range of 156 to 159 °C. Under `CCCn1cc(CO)c(=O)c2ccccc21` stands 88 to 91 °C. Under `COc1ccc(-c2cc3c(O)ncnc3[nH]2)cc1` stands > 300 °C; under `Cc1ccc(C(=O)c2c(C)cc(C)cc2O)cc1`, 102 to 105 °C; under `NCCC(=O)N(N)S(=O)(=O)c1ccccc1`, 135 to 137 °C. Under `C=CC1(C)OC(=O)c2ccc(Oc3ccc(C(F)(F)F)cc3Cl)cc21` (stereo not drawn) stands 71 to 73 °C; under `CC(Cc1c[nH]c2ccccc12)(NC(=O)OC1C2CC3CC(C2)CC1C3)C(=O)NCC(=NOCC(=O)O)c1ccccc1` (stereo not drawn), 138 to 142 °C; under `CCCCN1Nn2c(c3ncnc-3c3cccnc32)N1CC(C)C`, 182 to 184 °C. Regarding `COC[C@H]1CN(C2=Nc3ccccc3Nc3sc(C)cc32)CCN1`, the melting point lay within 87 to 95 °C. Next, `COC(=O)CCn1c(=O)n(CCCCCN2CCN(c3cccc(C(F)(F)F)c3)CC2)c(=O)c2cscc21`: 99.5 to 101 °C; `O=CNc1cccc(C(=O)Nc2ccc(-c3ccccc3)cc2)c1O`: 190 °C; `N#Cc1c(C2CC2)nn(-c2c(Cl)cc(C(F)(F)F)cc2Cl)c1N`: 197 to 199 °C. Under `S=C=NCc1cc(-c2ccccc2)no1` stands 66 °C; under `ON=C(c1ccccc1)c1cc(F)cc(F)c1`, 91 to 93 °C.

`COc1ccc(-c2ccc(N)nn2)cc1OC1CCCC1`: the melting point was 207 °C. Next, `CC(C)(C)[Si](C)(C)OCCn1ccc([N+](=O)[O-])n1`: 76 to 77 °C. Next, `O=C(O)CCCc1ccc(NS(=O)(=O)c2ccc(Br)cc2)cn1`: 188 to 190 °C.

In turn, `CCC(=NC#N)N[C@@H]1c2cc(C#N)ccc2OC(C)(C)[C@H]1O` (relative stereo) came in with a melting point of 122 to 124 °C. On to `CC(Oc1ccc(Cl)cc1)c1nnc(N)s1` (stereo not drawn), for which the melting point fell in the range of 162 to 166 °C. Next, `Cc1nc(-c2ccccc2)nc(-c2ccccn2)n1`: 97 °C; `CCCOc1ccc(S(=O)(=O)NCc2ccncc2)cc1-c1nc2cc(N)c(N)cc2c(=O)[nH]1`: 157 to 160 °C. Under `Cc1ccc(O)c(Cl)n1` stands 190 to 191 °C; under `Cc1cccc(OC(C)(C)C(=O)NCCc2ccc(OC(C)(C)C(=O)O)cc2)c1`, 85 to 88 °C. Next, `CCOc1ccc(C2=NN(c3ccc(C(=O)N4CCSCC4)cc3)C(=O)[C@H]3CC=CC[C@@H]23)cc1OCC` (relative stereo): 104 to 106 °C. In turn, `CC(C)(C)C(NC(=O)c1cc(Cl)cc(Cl)c1)Nc1c(Nc2cccnc2)c(=O)c1=O` (stereo not drawn) came in with a melting point of 260 to 262 °C. Next, `COc1ccccc1NC(=O)Nc1nc(NC(CC(=O)O)c2ccccc2)nc(Oc2ccc3ccccc3c2)n1` (stereo not drawn): 149 °C; `Cc1ccccc1Sc1c(O)c2c(Cl)cc(Cl)cc2[nH]c1=O`: > 300 °C. The molecule `COC(=O)CCc1ccc(NC(=O)c2cc(C(C)C)c(C(C)C)o2)cc1` came in with a melting point of 93 to 94 °C.
